Test results published in US20240335395A1, “COMPOSITIONS AND METHODS FOR PREVENTING AND/OR TREATING DISEASE ASSOCIATED WITH IL-23 EXPRESSION” (ALLSPIM, priority 2021, published 2024).

How the values were obtained:
[1] = tested on: Balb/c to C57BL/6 skin graft; assay: Balb/c to C57BL/6 full-thickness skin graft survival; type: in vivo, mouse; conditions: oral, bid
Procedure: Skin transplantation. Murine full-thickness allo-skin transplantation to study graft rejection was conducted according to a previously well-described protocol (Cheng et al, 2017). All procedures were conducted in accordance with the Guide for the Care and Use of Laboratory Animals of the National Institute of Health (NIH) and were approved by the animal ethics committee of Guangzhou University of Chinese Medicine.
Briefly, donor mice (Balb/c) were anesthetized with isoflurane (induction vaporizer at 4%, maintenance at 1-2% through the mouse cone). The toe pinch withdrawal reflex was used to monitor the depth of anesthesia. The back of the animal was shaved with an electric razor and disinfected with 10% povidone iodine. Using sterile scissors, gloves, and aseptic technique, donor back skin was harvested from the hip to the neck with blunt dissection at the level of the areolar connective tissue. After harvesting the skin graft, the animal was euthanized by cervical dislocation. Under a microscope, the connective tissue, fat tissue, and panniculus carnosus were separated from the back skin using fine tenotomy scissors. Using sterile technique, 15-mm×15-mm grafts were cut out from the back skin for a 10-mm×10-mm to 15-mm×15-mm graft bed (10 grafts were obtained from one donor mouse). The grafts were stored on gauze soaked with sterile phosphate-buffered saline (PBS) in a petri dish on ice.
The recipient mice (C57BL/6) were anesthetized with isoflurane. Buprenorphine (0.02 mg/kg) was administrated for postoperative pain relief. The side of the back of the animal where the graft will be inserted was shaved and disinfected with 10% povidone iodine. A 10-mm×10-mm to 15-mm×15-mm square of skin was intersected using scissors. The defect size was slightly larger (10%) than the graft. The graft was positioned on the graft bed avoiding folds along the edges. Eight sutures were placed on the corners and on the middle of each edge. […] When the graft was considered as successful, it was then monitored daily for signs of rejection. […]

IL-17 = assay: IL-17A production in anti-CD3/CD28-stimulated mouse spleen cells (ELISA); type: cell-based; conditions: for production and release of IL-17 in supernatant: 72 h
Procedure: Briefly, before the experiment, 48-well plates were coated with 150 μl/well hamster anti-mouse CD3 (Clone 145-2C11, NA/LE, BD PHM, USA) at a concentration of 10 μg/ml and incubated overnight at 4° C. The next day, a C57BL/6 mouse was euthanized by cervical dislocation, and its spleen was aseptically dissected using sterile techniques. The harvested spleen was placed in a small Petri dish containing 10 ml of ice-cold PBS/FBS, ground using 2 frosted microscope slides, and filtered through a piece of 40 μm nylon material to yield a single cell suspension. Thereafter, the spleen cell suspension was carefully dispensed onto mouse lymphocyte separation medium (TBD Science Inc, Tianjin, China) and the lymphocytes were collected after density gradient centrifugation. After washing and cell counting, cell density was adjusted to 1 million cells/mL with RPMI 1640 (Gibco) plus 10% FCS and 1 μg/mL anti-mouse CD28 (BD PHM). […] After stimulation for 72 hours with anti-CD3 and anti-CD28 monoclonal antibodies, culture supernatants were collected and IL-17A measured with an IL-17A mouse ELISA kit (Thermo Fisher Scientific Inc.) according to the manufacturer's instructions. Cell count and viability were also evaluated with 0.4% trypan blue (Thermo Fisher Scientific Inc.) staining.

[2] = tested on: laser-induced choroidal neovascularization (CNV); assay: Laser-induced CNV in rats, fluorescein angiography leakage grading; type: in vivo, rat; conditions: 14 days, intravitreous injection
Procedure: Animals. All experiments were performed in accordance with the European Communities Council Directive 86/609/EEC and approved by local ethical committees (#2541-2015110210279792 v3). Six- to eight-week-old male Long Evans rats from the Janvier Breeding Center (Le Genest-Saint-Isle, France) were used to create a rat model of choroidal neovascularization (CNV) used as a model of human wet macular degeneration.
Laser-induced CNV. After anesthesia and dilation of the pupils, coverslips were positioned on the cornea as a contact glass. For rats, six or eight burns were performed 2 to 3 optic disc diameters away from the optic nerve with an Argon laser (532 nm) mounted on a slit lamp (175 mW, 0.1 s and 50 μm). Both eyes of animals received laser induction. The presence of a bubble witnessed the rupture of Bruch's membrane and confirmed a successful laser impact.
Treatments. After laser photocoagulation, rats were divided into 3 treatment groups: —Intravitreous injection (IVT) of 2,4-D (identified as “new treatment”, New T), —IVT of vehicle (PBS), —IVT of triamcinolone acetonide (Kenacort® 40 mg/ml; TA) (n=12 rats per group). The IVT consisted of 5 μl injected with a 31G needle mounted on a micro-thin (100 μl) syringe posterior to the limbus, avoiding the lens. IVT was performed immediately after laser had been performed. Animals were sacrificed at 7 days (n=6 per group- and at 16 days (n=6 per group).
Fluorescein angiography (FA). FA was performed 14 days after laser induction. […] Early and late phase angiograms were recorded 1-3 and 5-7 min respectively after fluorescein injection. […] Angiographic scores were established by 2 blinded observers according to the following criteria: grade 0, no hyper-fluorescence; grade 1, slight hyper-fluorescence with no increase in intensity nor in size; grade 2, hyper-fluorescence increasing in intensity but not in size; grade 3, hyper-fluorescence increasing both in intensity and size; grade 4, hyper-fluorescence size increase more than 2-diameter of the initial laser burn.

COc1cc(O)c(OC)c(O)c1C(=O)/C=C/c1ccccc1 [2,4-D, 2′,4′-dihydroxy-3′,6′-dimethoxychalcone]
median graft survival ([1]; 2 mg/kg): 15 days
median graft survival ([1]; 10 mg/kg): 19 days
median graft survival ([1]; 50 mg/kg): 24 days
production and release of IL-17 in supernatant (IL-17; 1 μg/ml): significantly suppressed
production and release of IL-17 in supernatant (IL-17; 5 μg/ml): significantly suppressed
suppression of IL-17 on adding recombinant mouse IL-23 (IL-17; recombinant mouse IL-23 5 ng/ml): completely reversed
percentage of impact graded 0-1 [2]: 68%
percentage of impact in grade 3-4 (intense leakage) [2]: 13%
grading score of impacts compared to vehicle ([2]; Dunn's multiple comparison): significantly reduced
